Reference: publication PMC8725909, “1,3,4-Oxadiazole-naphthalene hybrids as potential VEGFR-2 inhibitors: design, synthesis, antiproliferative activity, apoptotic effect, and in silico studies” (Journal of Enzyme Inhibition and Medicinal Chemistry, 2021)
Several values for one entry are separate records, joined by “and”; a condition that tells them apart may be missing. Equal entries are not always repeated. Where two headings read alike, the source gives them in different places.

Legend:
[1] = tested on: VEGFR-2; experiment: VEGFR-2 level in HepG2 cells by ELISA; assay type: cell-based, human; details: VEGFR-2 concentration in HepG2 cells after treatment; control 1773 ± 15.01; mean ± SEM of three experiments
Experimental: In vitro VEGFR-2 concentration was evaluated using Enzyme-Linked Immunosorbent Assay (ELISA) kit (Cat. NO. EK0544) (AVIVA System Biology, USA) according to manufacturer instructions.

[2] = tested on: normal adult liver epithelial cells (THLE-2 cells); experiment: MTT cytotoxicity against normal cells; assay type: cell-based; details: Homo sapiens
Experimental: (§1) The MCF-7, HepG2, and THLE-2 cell lines were purchased from the American Type Culture Collection (ATCC, Rockville, MD, USA). MCF-7 and HepG2 cells were grown in a medium that contains Roswell Park Memorial Institute (RPMI) 1640 with L-glutamine, 10% foetal bovine serum (FBS), streptomycin (100 μg/ml) and penicillin (100 U/ml). While THLE-2 cells were cultivated in Bronchial Epithelial Growth Media (BEGM) with 10% FBS, 5 ng/ml EGF, and 70 ng/ml phosphoethanolamine. All cells were maintained in a humidified incubator and 5% (v/v) CO2 atmosphere at 37 °C[60].
(§2) The MCF-7, HepG2, and THLE-2 cells were tested for cytotoxicity using the 3–(4, 5-dimethylthiazol-2-yl)-2,5-diphenyltetrazolium bromide (MTT) assay. The ability of living cells to reduce the yellow product MTT to a blue product, formazan, via a reduction reaction that occurs in the mitochondria is used to assess cell population growth. In this assay, 5000 cells/well were plated in a 96-well plate and allowed to grow for 24 h before being treated with over-mentioned suitable media containing increased concentrations of tested compounds (0, 0.1, 1, 10, 100, and 1000 µM). Each experiment was conducted in triplicate. After removing the media, 100 µL of MTT was added to each well and incubated for 4 h. Following that, 100 µL of dimethyl sulfoxide (DMSO) solution was added to solubilise the resulting formazan product, and absorbance at 570 nm was measured using an ELISA microplate reader (Epoc-2 C micro-plate reader, Bio Tek, VT, USA). The IC50 values [the concentration required to inhibit cell viability by 50%] were calculated.

[3] = tested on: HepG2 (human hepatocellular carcinoma cell line); experiment: MTT cytotoxicity assay, HepG2; assay type: cell-based
Experimental: (§3) MTT assay was used to assess the cytotoxic activities of the synthesised compounds against MCF-7 (human breast cancer cell line) and HepG2 (human hepatocellular carcinoma cell line).
as §1, §2

[4] = tested on: MCF-7 (human breast cancer cell line); experiment: MTT cytotoxicity assay, MCF-7; assay type: cell-based
Experimental: as §3, §1, §2

[5] = parameters: method as in PMID 33707933; details: 200 mg once daily, patients with advanced solid tumours; cited from earlier work
[6] = tested on: HepG2 cells; experiment: Annexin-V/propidium iodide apoptosis assay; assay type: cell-based, human; details: HepG2, 8.8 µM, 48 h, mean ± SEM of three experiments
Experimental: The apoptosis induced by compound 5 was quantified using an Annexin-V/propidium iodide (PI) staining assay. Compound 5 was applied to HepG2 cells at a concentration of 8.8 µM.
To assess the effect of compound 5 on cell apoptosis, Annexin V–FITC Kit was used according to the kit protocol (PN IM3546), followed by flow cytometric analysis. In brief, HepG2 cells were allowed to grow in […], after that treated for 48 h. then, washed in phosphate-buffered saline and suspended to 5 × 10^5–5 × 10^6 cells/mL in 1X binding buffer. Then we added to 100 µL of the cell suspensions, 5 µL of dissolved PI, and 1 µL of annexin VFITC solution and incubated in the dark for 15 min. Next to that, we added 400 µL of ice-cold 1X binding buffer and mixed gently. Apoptotic cells were determined by flow cytometric analysis on a COULTER® EPICS® XL™ Flow Cytometer (USA)[67]^,[71]^,[72].

[7] = tested on: caspase-3; experiment: Caspase-3 determination by ELISA; assay type: cell-based, human; details: HepG2, 8.8 µM, 24 h
Experimental: To test the effect of the synthesised compounds on caspase-3 levels, the most promising member 5, at a concentration of 8.8 µM, was applied to the most sensitive cells (HepG2) for 24 h.
The effect of compound 5 on the Caspase-3 level was assessed using an ELISA kit (Catalog # KHO1091) according to manufacturer instructions.

[8] = tested on: HepG2 cells; experiment: Cell cycle analysis by flow cytometry (propidium iodide); assay type: cell-based, human; details: HepG2, 8.8 µM, 48 h
Experimental: As a control, HepG2 cells were not treated with compound 5.
The effect of compound 5 on the cell cycle phases was investigated using propidium iodide staining and flow cytometric analysis according to the cell cycle kit (PN C03551). Briefly, HepG2 cells were allowed to grow in […], then treated with compound 5 for 48 h. After that, the cells were harvested and cell fixation was performed, cells were centrifuged at 2000 rpm for 5 min then, the supernatant was aspirated. The pellet of fixed cells was resuspended in a 0.5 ml cell cycle kit, vortexed, and incubated at 25 °C for 15 min. Finally, DNA was stained with 50 µg/ml propidium iodide for 30 min. Flow cytometric analysis of cell cycle performed on a COULTER® EPICS® XL™ Flow Cytometer (USA)[67–70].

[9] = parameters: method as in PMID 25895472; details: cited from earlier work
[10] = THLE-2, normal liver epithelial cells, MTT, mean ± SEM of at least three experiments, read-out: THLE-2 IC50
[11] = HepG2, MTT assay, mean ± SEM of at least three experiments, read-out: IC50 HepG2
[12] = MCF7, MTT assay, mean ± SEM of at least three experiments, read-out: IC50 MCF-7

## COc1ccc2cc([C@H](C)c3nnc(SCC(=O)Nc4cccc(C)c4)o3)ccc2c1 [Compound 8, 2-{[5-(1-(6-Methoxynaphthalen-2-yl)ethyl)-1,3,4-oxadiazol-2-yl]thio}-N-(m-tolyl) acetamide]
[1]
  VEGFR-2 (pg/ml) HepG2: 583.7 pg/mL and 583.7 ± 1.93 pg/mL
[2]; [10]
  IC50: 16.7 ± 0.73 µM
[3]; [11]
  IC50: 9.5 ± 0.87 µM
[4]; [12]
  IC50: 10.4 ± 0.92 µM

## Cc1[nH]c(/C=C2\C(=O)Nc3ccc(F)cc32)c(C)c1C(=O)N[C@H]1CCN(C(=O)N(C)C)C1 [Vorolanib]
[5]
  safety profile: acceptable safety profile

## COc1ccc2cc(C(C)c3nnc(SCC(=O)Nc4ccc(Cl)cc4)o3)ccc2c1 (stereo not drawn) [Compound 13, N-(4-Chlorophenyl)-2-{[5-(1-(6-methoxynaphthalen-2-yl)ethyl)-1,3,4-oxadiazol-2-yl]thio}acetamide]
[3]; HepG2, read-out: IC50 HepG2
  IC50: 10.5 ± 0.93 µM
[4]; MCF7, read-out: IC50 MCF-7
  IC50: 11.4 ± 0.99 µM

## COc1ccc2cc(C(C)c3nnc(SCC(=O)Nc4ccc(C)cc4)o3)ccc2c1 (stereo not drawn) [Compound 9, 2-{[5-(1-(6-Methoxynaphthalen-2-yl)ethyl)-1,3,4-oxadiazol-2-yl]thio}-N-(p-tolyl)acetamide]
[3]; HepG2, read-out: IC50 HepG2
  IC50: 83.7 ± 6.52 µM
[4]; MCF7, read-out: IC50 MCF-7
  IC50: 83.5 ± 7.79 µM

## COc1ccc2cc(C(C)c3nnc(SCC(=O)Nc4c(C)cccc4C)o3)ccc2c1 (stereo not drawn) [Compound 10, N-(2,6-Dimethylphenyl)-2-{[5-(1-(6-methoxynaphthalen-2-yl)ethyl)-1,3,4-oxadiazol-2-yl]thio}acetamide]
[3]; [11]
  IC50: 11.8 ± 1.04 µM
[4]; [12]
  IC50: 12.5 ± 0.74 µM

## COc1ccc2cc(C(C)c3nnc(SCC(=O)Nc4ccccc4)o3)ccc2c1 (stereo not drawn) [Compound 6, 2-{[5-(1-(6-Methoxynaphthalen-2-yl)ethyl)-1,3,4-oxadiazol-2-yl]thio}-N-phenylacetamide]
[3]; [11]
  IC50: 12.3 ± 0.87 µM
[4]; [12]
  IC50: 13.2 ± 1.12 µM

## COc1ccc2cc([C@H](C)c3nnc(SCC(=O)Nc4ccccc4[N+](=O)[O-])o3)ccc2c1 [Compound 16, 2-{[5-(1-(6-Methoxynaphthalen-2-yl)ethyl)-1,3,4-oxadiazol-2-yl]thio}-N-(2-nitrophenyl) acetamide]
[1]
  VEGFR-2 (pg/ml) HepG2: 834.9 pg/mL and 834.9 ± 5.17 pg/mL
[2]; THLE-2, read-out: THLE-2 IC50
  IC50: 29.7 ± 2.23 µM
[3]; HepG2, read-out: IC50 HepG2
  IC50: 8.7 ± 0.72 µM
[4]; MCF7, read-out: IC50 MCF-7
  IC50: 9.8 ± 0.8 µM

## COc1ccc2cc(C(C)c3nnc(SCC(=O)NC4CCCCC4)o3)ccc2c1 (stereo not drawn) [Compound 12, N-Cyclohexyl-2-{[5-(1-(6-methoxynaphthalen-2-yl)ethyl)-1,3,4-oxadiazol-2-yl]thio}acetamide]
[3]; HepG2, read-out: IC50 HepG2
  IC50: 24.6 ± 2.81 µM
[4]; MCF7, read-out: IC50 MCF-7
  IC50: 25.5 ± 2.02 µM

## COc1ccc2cc(C(C)c3nnc(SCC(=O)Nc4ccc(Cl)cc4Cl)o3)ccc2c1 (stereo not drawn) [Compound 14, N-(2,4-Dichlorophenyl)-2-{[5-(1-(6-methoxynaphthalen-2-yl)ethyl)-1,3,4-oxadiazol-2-yl]thio}acetamide]
[3]; HepG2, read-out: IC50 HepG2
  IC50: 10.4 ± 0.81 µM
[4]; MCF7, read-out: IC50 MCF-7
  IC50: 11.2 ± 0.69 µM

## COc1ccc2cc(C(C)c3nnc(SCC(=O)Nc4c(Cl)cccc4Cl)o3)ccc2c1 (stereo not drawn) [Compound 15, N-(2,6-Dichlorophenyl)-2-{[5-(1-(6-methoxynaphthalen-2-yl)ethyl)-1,3,4-oxadiazol-2-yl]thio}acetamide]
[1]
  VEGFR-2 (pg/ml) HepG2: 864.5 pg/mL and 864.5 ± 5.92 pg/mL
[2]; [10]
  IC50: 34.9 ± 1.86 µM
[3]; [11]
  IC50: 8.4 ± 0.72 µM
[4]; [12]
  IC50: 9.8 ± 0.46 µM

## COc1cccc(NC(=O)CSc2nnc(C(C)c3ccc4cc(OC)ccc4c3)o2)c1 (stereo not drawn) [Compound 11, 2-{[5-(1-(6-Methoxynaphthalen-2-yl)ethyl)-1,3,4-oxadiazol-2-yl]thio}-N-(3-methoxyphenyl)acetamide]
[3]; [11]
  IC50: 10.7 ± 0.58 µM
[4]; [12]
  IC50: 11.4 ± 0.81 µM

## CNC(=O)c1cc(Oc2ccc(NC(=O)Nc3ccc(Cl)c(C(F)(F)F)c3)cc2)ccn1 [Sorafenib, reference compound]
[2]; [10]
  IC50: 27.8 ± 1.74 µM
[3]; [11]
  IC50: 10.2 ± 0.97 µM
[4]; [12]
  IC50: 10.8 ± 1.01 µM

## COc1ccc2cc([C@H](C)c3nnc(SCC(=O)Nc4ccc([N+](=O)[O-])cc4)o3)ccc2c1 [Compound 17, 2-{[5-(1-(6-Methoxynaphthalen-2-yl)ethyl)-1,3,4-oxadiazol-2-yl]thio}-N-(4-nitrophenyl) acetamide]
[1]
  VEGFR-2 (pg/ml) HepG2: 1067 pg/mL and 1067 ± 4.91 pg/mL
[2]; THLE-2, read-out: THLE-2 IC50
  IC50: 22.8 ± 1.22 µM
[3]; HepG2, read-out: IC50 HepG2
  IC50: 9.2 ± 0.76 µM
[4]; MCF7, read-out: IC50 MCF-7
  IC50: 10.4 ± 0.82 µM

## COc1ccc2cc(C(C)c3nnc(SCC(=O)Nc4ccccc4C)o3)ccc2c1 (stereo not drawn) [Compound 7, 2-{[5-(1-(6-Methoxynaphthalen-2-yl)ethyl)-1,3,4-oxadiazol-2-yl]thio}-N-(o-tolyl)acetamide]
[3]; [11]
  IC50: 12.5 ± 1.09 µM
[4]; [12]
  IC50: 13.6 ± 1.09 µM

## COc1ccc2cc(C(C)c3nnc(SCC(=O)NCc4ccccc4)o3)ccc2c1 (stereo not drawn) [Compound 5, N-Benzyl-2-{[5-(1-(6-methoxynaphthalen-2-yl)ethyl)-1,3,4-oxadiazol-2-yl]thio}acetamide]
[1]
  VEGFR-2 (pg/ml) HepG2: 610.4 pg/mL and 610.4 ± 3.46 pg/mL
[2]; [10]
  IC50: 33.7 ± 1.35 µM
[6]; control 0.51 ± 0.03
  Apoptosis (%): 22.86% and 22.86 ± 1.28 %
[6]; control 1.25 ± 0.08
  Necrosis (%): 11.26 ± 0.77 %
[3]; [11]
  IC50: 8.8 ± 0.69 µM
[7]
  increase in the level of caspase-3 compared to control cells: 5.61 fold
[4]; [12]
  IC50: 9.7 ± 0.75 µM
[8]; control 1.76%
  percentage of cells in Pre-G1 phase: 34.12%
[8]; control 27.59%
  percentage of cells in S phase: 42.05%
[8]; control 51.31%
  percentage of cells in G0/G1 phase: 43.91%

## COc1ccc2cc(C(C)c3nnc(SCC(=O)Nc4ccc([N+](=O)[O-])cc4O)o3)ccc2c1 (stereo not drawn) [Compound 18, N-(2-Hydroxy-4-nitrophenyl)-2-{[5-(1-(6-methoxynaphthalen-2-yl)ethyl)-1,3,4-oxadiazol-2-yl]thio}acetamide]
[1]
  VEGFR-2 (pg/ml) HepG2: 1004 pg/mL and 1004 ± 5.49 pg/mL
[2]; [10]
  IC50: 28.6 ± 2.1 µM
[3]; [11]
  IC50: 8.7 ± 0.75 µM
[4]; [12]
  IC50: 9.4 ± 0.64 µM

## COc1cc2nccc(Oc3ccc(NC(=O)Nc4cc(C)on4)c(Cl)c3)c2cc1OC [Tivozanib]
[9]
  half-life: 96 h
